# Where two headings read alike, the source gives them in different places.
# Columns and labels:
# [1] = system: male C57BL/6J mice; experiment: animal or person; format: in vivo; settings: Mus musculus, ip, 1 h, read-out: ED50 (95% confidence intervals) Tail Flick
# [2] = system: male C57BL/6J mice; experiment: animal or person; format: in vivo; settings: Mus musculus, ip, 1 h, read-out: ED50 (95% confidence intervals) Hot Plate
# [3] = in vivo; settings: male, C57BL/6J, mouse, ip
# [4] = system: MOR; settings: operational model; ref DeWire et al., 2013; cited from earlier work
Compound,ED50 [1] [mg/kg],ED50 [2] [mg/kg],ED50 [3] [mg/kg],ED50 ([3]; ED50 (95% confidence intervals) %O2 Saturation) [mg/kg],bias factor (G protein signaling over βarrestin pathway) [4]
CN1CC[C@]23c4c5ccc(O)c4O[C@H]2[C@@H](O)C=C[C@H]3[C@H]1C5 [Morphine],3.8,5.9,33,79,
COc1ccsc1CNCC[C@@]1(c2ccccn2)CCOC2(CCCC2)C1 [TRV-130],,,,,3
